Measured values reported in the supplement of paper PMC9549728.
Where a name gives a salt, the structure may show the parent alone.

Columns and labels:
Experiment in all cases: IC50 (viability, PrestoBlue) (log10 nM)
Details in all cases: exposure time: 72 h
[1] = test system: murine gastric organoid RAS-activated (Kras G12D; Tp53 R172H)
How it was run: (§1)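 Compounds diluted in DMSO were pre-spotted into 384-well plates at nine final concentrations (6.7–25,004 nM), and mechanically dissociated murine gastric corpus organoids, uninduced or Cre-induced (RAS-activated, WNT-activated, diffuse), were seeded in 15 μl Matrigel with 45 μl medium on top for 72 h. Viability was then read as fluorescence at 560/590 nm after 3 h at 37°C with 1× final PrestoBlue. IC50 values were derived by non-linear regression in Prism and are given in log10 nM, averaged over three passages with two wells each.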

[2] = test system: murine gastric organoid WNT-activated (Apc fl/fl; Tp53 R172H)
How it was run: as §1

[3] = test system: murine gastric organoid diffuse (Cdh1 fl/fl; Apc fl/fl)
How it was run: as §1

[4] = test system: murine normal gastric organoid
How it was run: as §1

Row | Compound | IC50 (log10 nM) [1] | IC50 (log10 nM) [2] | IC50 (log10 nM) [3] | IC50 (log10 nM) [4]
1 | CC(=O)Nc1cccc(-n2c(=O)n(C3CC3)c(=O)c3c(Nc4ccc(I)cc4F)n(C)c(=O)c(C)c32)c1 [Trametinib] | 1.33 | 1.9 | 1.71 | 1.36
2 | CC(C)Nc1cc(-c2c[nH]c(C(=O)N[C@H](CO)c3cccc(Cl)c3)c2)c(Cl)cn1 [Ulixertinib] | 3.09 | 2.96 | 3.42 | 2.79
3 | Oc1ncc(N(CCCl)CCCl)c(O)n1 [Uramustine] | 3.2 | 3.68 | 3.69 | 3.3
4 | CCCCC(=O)OCC(=O)[C@]1(O)Cc2c(O)c3c(c(O)c2[C@@H](O[C@H]2C[C@H](NC(=O)C(F)(F)F)[C@H](O)[C@H](C)O2)C1)C(=O)c1c(OC)cccc1C3=O [Valrubicin] | 2.49 | 2.65 | 2.58 | 2.43
5 | COc1cc2/c(=N/c3ccc(Br)cc3F)nc[nH]c2cc1OCC1CCN(C)CC1 [Vandetanib] | 2.63 | 2.64 | 2.76 | 3.95
6 | Clc1ccc(Nc2nnc(Cc3ccncc3)c3ccccc23)cc1 [Vatalanib] | 3.75 | 3.61 | 4.26 | 3.55
7 | CC[C@]1(O)C[C@@H]2CN(CCc3c([nH]c4ccccc34)[C@@](C(=O)OC)(c3cc4c(cc3OC)N(C)[C@H]3[C@@](O)(C(=O)OC)[C@H](OC(C)=O)[C@]5(CC)C=CCN6CC[C@]43[C@@H]65)C2)C1 [Vinblastine sulfate] | < 0.826 | < 0.826 | < 0.826 | < 0.826
8 | CC[C@]1(O)C[C@H]2CN(CCc3c([nH]c4ccccc34)[C@@](C(=O)OC)(c3cc4c(cc3OC)N(C=O)[C@H]3[C@@](O)(C(=O)OC)[C@H](OC(C)=O)[C@]5(CC)C=CCN6CC[C@]43[C@@H]65)C2)C1 [Vincristine sulfate] | 2.08 | 2.19 | 1.89 | 1.68
9 | CC[C@]12C=CCN3CC[C@@]4(c5cc([C@@]6(C(=O)OC)C[C@@H]7C[C@@H](C(C)(F)F)CN(Cc8c6[nH]c6ccccc86)C7)c(OC)cc5N(C)[C@H]4[C@@](O)(C(=O)OC)[C@@H]1OC(C)=O)[C@@H]32 [Vinflunine tartrate] | 2.32 | 1.63 | 2.23 | 2.09
10 | CC[C@@H]1C(=O)N(C)c2cnc(Nc3ccc(C(=O)N[C@H]4CC[C@H](N5CCN(CC6CC6)CC5)CC4)cc3OC)nc2N1C(C)C [Volasertib] | 2.09 | 2.19 | 2.29 | 1.98
11 | O=C(CCCCCCC(=O)Nc1ccccc1)NO [Vorinostat] | 3.28 | 3.67 | 3.65 | 3.62
12 | C[C@H](NC(=O)/C(C#N)=C/c1cccc(Br)n1)c1ccccc1 [WP1066] | 3.49 | 3.26 | 3.52 | 3.47
13 | O[C@@H](COc1cccc2ncccc12)CN1CCN([C@@H]2c3ccccc3[C@@H]3[C@H](c4ccccc42)C3(F)F)CC1 [Zosuquidar trihydrochloride] | 4.07 | 4.03 | 4.02 | 3.88
14 | COC(=O)[C@]12CCC(C)(C)C[C@H]1[C@H]1C(=O)C=C3[C@@]4(C)C=C(C#N)C(=O)C(C)(C)[C@@H]4CC[C@@]3(C)[C@]1(C)CC2 [bardoxolone methyl] | 2.38 | 2.92 | 3.24 | 2.61
15 | O=c1[nH]cc(F)c(=O)[nH]1 [fluorouracil] | 3.32 | 4.09 | 3.28 | 3.4
16 | NC(=O)N1CCC(CC(=O)N2CCC([C@H]3c4ncc(Br)cc4CCc4cc(Cl)cc(Br)c43)CC2)CC1 [lonafarnib] | 3.03 | 3.47 | 4.3 | 3.33
